What was measured:
Format in all cases: cell-based, mouse
[1] = tested on: α7 integrin (LacZ reporter in α7+/LacZ myotubes); assay: Myotube α7 integrin FDG assay (Burkin assay in myotubes, 96-well); details: for Burkin Assay in Myotubes, value relative to DMSO: SU9516 analogs, 96-well, N=3-6
[2] = tested on: β-galactosidase in CMV-LacZ C2C12 myoblasts; assay: CMV-LacZ secondary screen in C2C12 myoblasts (β-Gal stabilizing assay); details: for CMV-LACZ in Myoblasts (β-galactosidase activity relative to DMSO): CMV-LacZ C2C12 myoblasts; for CMV-LACZ in Myoblasts, value relative to DMSO: SU9516 analogs, C2C12 CMV-LacZ, N=2
In short: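 β-gal stabilization was measured in C2C12 myoblasts or myotubes stably transfected with a CMV-driven LacZ construct, using the FDG β-gal assay. Compounds were tested in dose-response at 0.5, 1, 5, 10, 20 and 40 μM, with two replicates per point.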

[3] = tested on: β-galactosidase in CMV-LacZ C2C12 myotubes; assay: CMV-LacZ secondary screen in C2C12 myotubes (β-Gal stabilizing assay); details: for CMV-LACZ in Myotubes, signal relative to DMSO: C2C12 CMV-LacZ myotubes, fold relative to DMSO; for CMV-LACZ in Myotubes, value relative to DMSO: SU9516 analogs, C2C12 CMV-LacZ, N=2
In short: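 β-Gal level was the read-out, measured in a clonal C2C12 line expressing LacZ from a CMV promoter. Dose-response curves used six concentrations, 0.5 μM up to 40 μM, with duplicate points.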

[4] = tested on: α7 integrin (LacZ reporter in α7βgal+/− myoblasts); assay: Myoblast α7+/LacZ integrin FDG assay (Burkin assay in myoblasts, 96-well); details: for Burkin Assay in Myoblasts, signal relative to DMSO: α7+/LacZ myoblasts, 96-well
[5] = Mus musculus, Myoblast, 48 h, read-out: Burkin Assay in Myoblasts, value relative to DMSO

Compound: OC(c1nc2ccc(F)cc2[nH]1)C(O)c1nc2ccc(F)cc2[nH]1 (stereo not drawn) [MLS001182368-01]
- Burkin Assay in Myotubes, α7 integrin LacZ reporter signal relative to DMSO ([1]; 0.5 uM): 1.044
- Burkin Assay in Myotubes, α7 integrin LacZ reporter signal relative to DMSO ([1]; 1 uM): 1.0792
- Burkin Assay in Myotubes, α7 integrin LacZ reporter signal relative to DMSO ([1]; 5 uM): 1.2117
- Burkin Assay in Myotubes, α7 integrin LacZ reporter signal relative to DMSO ([1]; 10 uM): 1.02
- Burkin Assay in Myotubes, α7 integrin LacZ reporter signal relative to DMSO ([1]; 20 uM): 0.9097
- Burkin Assay in Myotubes, α7 integrin LacZ reporter signal relative to DMSO ([1]; 40 uM): 0.9193
- CMV-LACZ in Myoblasts (β-galactosidase activity relative to DMSO) ([2]; 0.5 uM): 0.9571
- CMV-LACZ in Myoblasts (β-galactosidase activity relative to DMSO) ([2]; 1 uM): 0.8783
- CMV-LACZ in Myoblasts (β-galactosidase activity relative to DMSO) ([2]; 5 uM): 1.0528
- CMV-LACZ in Myoblasts (β-galactosidase activity relative to DMSO) ([2]; 10 uM): 0.9225
- CMV-LACZ in Myoblasts (β-galactosidase activity relative to DMSO) ([2]; 20 uM): 1.2322
- CMV-LACZ in Myoblasts (β-galactosidase activity relative to DMSO) ([2]; 40 uM): 1.1615
- CMV-LACZ in Myotubes, signal relative to DMSO ([3]; 0.5 uM): 0.8667
- CMV-LACZ in Myotubes, signal relative to DMSO ([3]; 1 uM): 1.0619
- CMV-LACZ in Myotubes, signal relative to DMSO ([3]; 5 uM): 0.8931
- CMV-LACZ in Myotubes, signal relative to DMSO ([3]; 10 uM): 0.8690
- CMV-LACZ in Myotubes, signal relative to DMSO ([3]; 20 uM): 0.9953
- CMV-LACZ in Myotubes, signal relative to DMSO ([3]; 40 uM): 1.0318
- Burkin Assay in Myoblasts, signal relative to DMSO ([4]; 0.5 uM): 1.081
- Burkin Assay in Myoblasts, signal relative to DMSO ([4]; 1 uM): 1.215
- Burkin Assay in Myoblasts, signal relative to DMSO ([4]; 5 uM): 0.914
- Burkin Assay in Myoblasts, signal relative to DMSO ([4]; 10 uM): 0.8945
- Burkin Assay in Myoblasts, signal relative to DMSO ([4]; 20 uM): 1.001
- Burkin Assay in Myoblasts, signal relative to DMSO ([4]; 40 uM): 0.8952

Compound: O=C1Nc2ccccc2/C1=C/c1ccnc2ccccc12 [MLS001182278-01]
- Burkin Assay in Myotubes, value relative to DMSO ([1]; 0.5 uM): 1.1969
- Burkin Assay in Myotubes, value relative to DMSO ([1]; 1 uM): 1.118
- Burkin Assay in Myotubes, value relative to DMSO ([1]; 5 uM): 1.402
- Burkin Assay in Myotubes, value relative to DMSO ([1]; 10 uM): 1.412
- Burkin Assay in Myotubes, value relative to DMSO ([1]; 20 uM): 0.5653
- Burkin Assay in Myotubes, value relative to DMSO ([1]; 40 uM): 0.6488
- CMV-LACZ in Myoblasts, value relative to DMSO ([2]; 0.5 uM): 0.7466
- CMV-LACZ in Myoblasts, value relative to DMSO ([2]; 1 uM): 0.9491
- CMV-LACZ in Myoblasts, value relative to DMSO ([2]; 5 uM): 0.9823
- CMV-LACZ in Myoblasts, value relative to DMSO ([2]; 10 uM): 0.9778
- CMV-LACZ in Myoblasts, value relative to DMSO ([2]; 20 uM): 1.0519
- CMV-LACZ in Myoblasts, value relative to DMSO ([2]; 40 uM): 0.5959
- CMV-LACZ in Myotubes, value relative to DMSO ([3]; 0.5 uM): 0.9674
- CMV-LACZ in Myotubes, value relative to DMSO ([3]; 1 uM): 1.0126
- CMV-LACZ in Myotubes, value relative to DMSO ([3]; 5 uM): 1.0327
- CMV-LACZ in Myotubes, value relative to DMSO ([3]; 10 uM): 1.0297
- CMV-LACZ in Myotubes, value relative to DMSO ([3]; 20 uM): 1.0224
- CMV-LACZ in Myotubes, value relative to DMSO ([3]; 40 uM): 1.1212
- fold induction at 0.5 µM [4, 5]: 1.21
- fold induction at 1 µM [4, 5]: 1.07
- fold induction at 5 µM [4, 5]: 1.06
- fold induction at 10 µM [4, 5]: 1.17
- fold induction at 20 µM [4, 5]: 0.766
- fold induction at 40 µM [4, 5]: 0.842

Compound: COc1ccccc1C(=O)Nc1ccnn1C1CCN(C(=O)c2ccoc2)CC1 [MLS001083082-01]
- Burkin Assay in Myotubes, α7 integrin LacZ reporter signal relative to DMSO ([1]; 0.5 uM): 1.035
- Burkin Assay in Myotubes, α7 integrin LacZ reporter signal relative to DMSO ([1]; 1 uM): 0.9411
- Burkin Assay in Myotubes, α7 integrin LacZ reporter signal relative to DMSO ([1]; 5 uM): 1.07
- Burkin Assay in Myotubes, α7 integrin LacZ reporter signal relative to DMSO ([1]; 10 uM): 1.05
- Burkin Assay in Myotubes, α7 integrin LacZ reporter signal relative to DMSO ([1]; 20 uM): 0.8987
- Burkin Assay in Myotubes, α7 integrin LacZ reporter signal relative to DMSO ([1]; 40 uM): 0.937
- CMV-LACZ in Myoblasts (β-galactosidase activity relative to DMSO) ([2]; 0.5 uM): 0.8591
- CMV-LACZ in Myoblasts (β-galactosidase activity relative to DMSO) ([2]; 1 uM): 0.9234
- CMV-LACZ in Myoblasts (β-galactosidase activity relative to DMSO) ([2]; 5 uM): 1.0409
- CMV-LACZ in Myoblasts (β-galactosidase activity relative to DMSO) ([2]; 10 uM): 1.1713
- CMV-LACZ in Myoblasts (β-galactosidase activity relative to DMSO) ([2]; 20 uM): 0.9615
- CMV-LACZ in Myoblasts (β-galactosidase activity relative to DMSO) ([2]; 40 uM): 0.8144
- CMV-LACZ in Myotubes, signal relative to DMSO ([3]; 0.5 uM): 0.9615
- CMV-LACZ in Myotubes, signal relative to DMSO ([3]; 1 uM): 1.0326
- CMV-LACZ in Myotubes, signal relative to DMSO ([3]; 5 uM): 0.9984
- CMV-LACZ in Myotubes, signal relative to DMSO ([3]; 10 uM): 0.9776
- CMV-LACZ in Myotubes, signal relative to DMSO ([3]; 20 uM): 1.0282
- CMV-LACZ in Myotubes, signal relative to DMSO ([3]; 40 uM): 1.1165
- Burkin Assay in Myoblasts, signal relative to DMSO ([4]; 0.5 uM): 0.9036
- Burkin Assay in Myoblasts, signal relative to DMSO ([4]; 1 uM): 0.9516
- Burkin Assay in Myoblasts, signal relative to DMSO ([4]; 5 uM): 1.058
- Burkin Assay in Myoblasts, signal relative to DMSO ([4]; 10 uM): 1.023
- Burkin Assay in Myoblasts, signal relative to DMSO ([4]; 20 uM): 1.014
- Burkin Assay in Myoblasts, signal relative to DMSO ([4]; 40 uM): 0.9468

From patent US9980943B2, “Methods of treating muscular dystrophy” (BOARD OF REGENTS OF THE NEVADA SYSTEM OF HIGHER EDUCATION, …, priority 2013, dated 2018)
